Data: publication PMC2755569 (The Pediatric Infectious Disease Journal, 2009)

Experiments:
[1] = range = 0.5- to 2.0-fold of target value; cited from earlier work
clinical = details: human, in vivo
[2] = Steady-state plasma pharmacokinetics of LPV/RTV plus EFV, protocol P1058
[3] = human, in vivo
[4] = 15 South African children, median dose 352 mg/m^2 equivalent to 14 mg/kg; cited from earlier work
[5] = children dosed according to body weight-adjusted dose recommendations; cited from earlier work
[6] = median (range), steady state, LPV/RTV 300 mg/m^2 b.i.d. + EFV 350 mg/m^2 q.d., 15 patients

AUC (clinical; 300 mg/m2, AUC (AUC12), GM (90% CI)) [µg·h/mL] | AUC (clinical; 300 mg/m2, AUCτ (AUC12)) [µg·h/mL] | AUC lower compared with pediatric and adult patients [3] [%] | Cmin lower compared with pediatric and adult patients ([3]; 24 h) [%] | AUC ([2]; human, plasma, oral, 350 mg/m2, AUC24, GM (90% CI), geometric mean (90% CI), EFV 350 mg/m^2 q.d. with LPV/RTV) [µg·h/mL] | concentration at 24 h ([2]; human, plasma, oral, EstC24 hours, GM (90% CI), geometric mean (90% CI), EFV 350 mg/m^2 q.d. with LPV/RTV) [µg/mL] | SMILES | Target GM (range) AUC12 [1] | concentration at 12 h ([2]; human, plasma, oral, Cmin (C12 h), median (range), LPV/RTV 300 mg/m^2 b.i.d. with EFV, 15 patients) [µg/mL] | CL (CL/F) [2, 6] | Tmax ([2]; median (range), steady state, LPV/RTV 300 mg/m^2 b.i.d. + EFV 350 mg/m^2 q.d., 15 patients, plasma) | Patients with estimated Cmin <1 mg/L [4] [%] | Patients with plasma concentrations below the targeted range [5] [%] | Target GM (range) AUC24 [1] | Target GM (range) C24 hours [1]
91.3 | 100 |  |  |  |  | Cc1cccc(C)c1OCC(=O)N[C@@H](Cc1ccccc1)[C@@H](O)C[C@H](Cc1ccccc1)NC(=O)[C@H](C(C)C)N1CCCNC1=O [LPV, lopinavir] | 80 (40 –160) mg × h/L |  |  |  |  |  |  | 
 |  |  |  |  |  | CC(C)c1nc(CN(C)C(=O)N[C@H](C(=O)N[C@@H](Cc2ccccc2)C[C@H](O)[C@H](Cc2ccccc2)NC(=O)OCc2cncs2)C(C)C)cs1 [RTV, ritonavir] |  | 0.3 | 11.8 (2.0–264.8) L/h | 3.0 (1.0–8.1) hr |  |  |  | 
 |  | 30 | 60 | 44.1 | 0.8 | O=C1Nc2ccc(Cl)cc2[C@@](C#CC2CC2)(C(F)(F)F)O1 [EFV, efavirenz] |  |  | 8.5 (2.3–22.9) L/h |  | 40 | 64 | 64 (32–124) mg × h/L | 1.8 (0.9 –3.6) mg/L
